Data published in PubChem BioAssay (NCI).
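Grown in 96-well plates, cells were treated for 48 hours with each compound at five concentrations. Insufficient inhibition: endpoint recorded as highest concentration tested. GI50 marks 50% less growth. TGI denotes the concentration required for complete inhibition of growth.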

How the values were obtained:
Experiment in all cases: NCI anticancer screen, dose series, 48 h
[1] = system: ACHN renal
[2] = system: NCI-H522 lung
[3] = system: MOLT-4 leukemia
[4] = system: NCI/ADR-RES ovarian
[5] = system: SNB-19 CNS
[6] = system: RXF 393 renal
[7] = system: COLO 205 colon
[8] = system: OVCAR-5 ovarian
[9] = system: BT-549 breast
[10] = system: SK-MEL-2 melanoma
[11] = system: SF-539 CNS
[12] = system: A549 NSCLC
[13] = system: EKVX NSCLC
[14] = system: TK-10 renal
[15] = system: NCI-H226 lung
[16] = system: CAKI-1 renal
[17] = system: OVCAR-3 ovarian
[18] = system: UO-31 renal
[19] = system: SK-MEL-5 melanoma
[20] = system: SR leukemia
[21] = system: HS 578T breast
[22] = system: PC-3 prostate
[23] = system: UACC-62 melanoma
[24] = system: OVCAR-8 ovarian
[25] = system: MDA-MB-435
[26] = system: SNB-75 CNS
[27] = system: HOP-62 NSCLC
[28] = system: MDA-MB-231 breast
[29] = system: HT29 colon
[30] = system: HL-60(TB) leukemia
[31] = system: SN12C renal
[32] = system: U251 CNS
[33] = system: HCC-2998 colon
[34] = system: RPMI-8226 leukemia
[35] = system: NCI-H23 lung
[36] = system: NCI-H460 lung
[37] = system: SF-268 CNS
[38] = system: K-562 leukemia
[39] = system: IGROV1 ovarian
[40] = system: LOX IMVI melanoma
[41] = system: SK-MEL-28 melanoma
[42] = system: KM12 colon
[43] = system: MALME-3M melanoma
[44] = system: T-47D breast
[45] = system: SW-620 colon
[46] = system: SK-OV-3 ovarian
[47] = system: CCRF-CEM leukemia
[48] = system: A498 renal
[49] = system: 786-0 renal
[50] = system: M14 melanoma
[51] = system: HOP-92 NSCLC
[52] = system: MCF7 breast
[53] = system: SF-295 CNS
[54] = system: HCT-116 colon
[55] = system: UACC-257 melanoma
[56] = system: DU-145 prostate
[57] = system: OVCAR-4 ovarian
[58] = system: HCT-15 colon

## CC/C(=C(/c1ccc(/C=C/C(=O)O)cc1)c1ccc2[nH]ncc2c1)c1ccc(F)cc1Cl
[1]
  GI50: 9.16 µM
  TGI: 24.3 µM
[2]
  GI50: 9.42 µM
  TGI: 28.2 µM
[3]
  GI50: 11.3 µM
  TGI: 37.3 µM
[4]
  GI50: 9.08 µM
  TGI: 26.5 µM
[5]
  GI50: 12.9 µM
  TGI: 31.2 µM
[6]
  GI50: 5.31 µM
  TGI: 16.3 µM
[7]
  GI50: 15.5 µM
  TGI: 35.3 µM
[8]
  GI50: 17.5 µM
  TGI: 35.9 µM
[9]
  GI50: 7.79 µM
  TGI: 22.7 µM
[10]
  GI50: 10.2 µM
  TGI: 27 µM
[11]
  GI50: 7.84 µM
  TGI: 21.6 µM
[12]
  GI50: 8.58 µM
  TGI: 25.1 µM
[13]
  GI50: 13.2 µM
  TGI: 32.3 µM
[14]
  GI50: 15.9 µM
  TGI: 33.4 µM
[15]
  GI50: 19.3 µM
  TGI: 47.6 µM
[16]
  GI50: 11.9 µM
  TGI: 25.6 µM
[17]
  GI50: 11.8 µM
  TGI: 24.9 µM
[18]
  GI50: 11.2 µM
  TGI: 24.7 µM
[19]
  GI50: 8.35 µM
  TGI: 21.4 µM
[20]
  GI50: 4.03 µM
  TGI: 29.4 µM
[21]
  GI50: 8.63 µM
  TGI: 38.7 µM
[22]
  GI50: 7.95 µM
  TGI: 21.6 µM
[23]
  GI50: 5.85 µM
  TGI: 21.8 µM
[24]
  GI50: 14.2 µM
  TGI: 37.9 µM
[25]
  GI50: 2.76 µM
  TGI: 8.38 µM
[26]
  GI50: 6.91 µM
  TGI: 26.3 µM
[27]
  GI50: 9.98 µM
  TGI: 26.5 µM
[28]
  GI50: 16.2 µM
  TGI: 34.6 µM
[29]
  GI50: 13.3 µM
  TGI: 32.4 µM
[30]
  GI50: 9.3 µM
  TGI: 31 µM
[31]
  GI50: 14.7 µM
  TGI: 44.6 µM
[32]
  GI50: 9.44 µM
  TGI: 23.5 µM
[33]
  GI50: 13.8 µM
  TGI: 29.8 µM
[34]
  GI50: 7.72 µM
  TGI: 41 µM
[35]
  GI50: 15.4 µM
  TGI: 37.8 µM
[36]
  GI50: 10.7 µM
  TGI: 27.7 µM
[37]
  GI50: 11.9 µM
  TGI: 27.4 µM
[38]
  GI50: 12.1 µM
  TGI: 41 µM
[39]
  GI50: 15.8 µM
  TGI: 40 µM
[40]
  GI50: 14.5 µM
  TGI: 39.6 µM
[41]
  GI50: 7.25 µM
  TGI: 22.2 µM
[42]
  GI50: 6.79 µM
  TGI: 21.5 µM
[43]
  GI50: 18.6 µM
  TGI: 44.9 µM
[44]
  GI50: 0.141 µM
  TGI: 26.9 µM
[45]
  GI50: 12 µM
  TGI: 28.5 µM
[46]
  GI50: 16.7 µM
  TGI: 30.8 µM
[47]
  GI50: 8.37 µM
  TGI: 30.7 µM
[48]
  GI50: 4.75 µM
  TGI: 17.9 µM
[49]
  GI50: 7.83 µM
  TGI: 21.1 µM
[50]
  GI50: 7.84 µM
  TGI: 27.1 µM
[51]
  GI50: 10.1 µM
  TGI: 24.8 µM
[52]
  TGI: 15.4 µM
[53]
  GI50: 7.81 µM
  TGI: 21.1 µM
[54]
  GI50: 7.45 µM
  TGI: 20.8 µM
[55]
  GI50: 17.4 µM
  TGI: 43.2 µM
[56]
  GI50: 14.4 µM
  TGI: 27.6 µM
[57]
  GI50: 12 µM
  TGI: 27.9 µM
[58]
  GI50: 7.45 µM
  TGI: 22 µM
